Patent publication US8541468B2, “Ophthalmic composition for treating tear dysfunction” (Ophtecs Corporation, priority 2003, dated 2013)

Experiments:
Format in all cases: in vivo
[1] = test system: rat dry eye models; experiment: Measurement of tear film breakup time (BUT) in rat dry eye models; details: eye drops of any concentration (40, 80 and 120 mmol/L HBA.Na), four times a day for 5 days, dry environment
Excerpt: Air was blown against rats in a low humidity environment as described below to prepare rat dry eye models. An effect of sodium D-3-hydroxybutyrate (hereinafter abbreviated as “HBA.Na”) which is an active ingredient in the present invention, i.e., its effect of improving the stability of tear film, was examined by use of the prepared rat dry eye models. That is, observation of dry spot areas in the tear film of the rats and measurement of BUT of the tear film were made.
As the animals to be examined, there were used female SD rats of 8 weeks old that had been conditioned in an animal room where they were kept under light for 12 hours and in the dark for 12 hours at a room temperature of 23±2° C. and a relative humidity of 60±10%. The rats were kept in the animal room for 4 days. […]
After passage of two hours from the last application of the eye drops on the fifth day, a xylazine hydrochloride/ketamine hydrochloride mixed solution was injected (2 ml/kg) into the rats to anesthetize them. After 1% fluorescein was added to the eyes of the rats and the rats were forced to blink a few times, BUT was measured. The above procedure was conducted for HBA.Na concentrations of 40, 80 and 120 mmol/L, and each of the HBA.Na concentrations was evaluated based on 8 eyes of 8 rats.

[2] = test system: rat dry eye models; experiment: Observation of dry spot areas in the tear film of rat dry eye models; details: four times a day for 5 days, dry environment
Excerpt: Air was blown against rats in a low humidity environment as described below to prepare rat dry eye models. An effect of sodium D-3-hydroxybutyrate (hereinafter abbreviated as “HBA.Na”) which is an active ingredient in the present invention, i.e., its effect of improving the stability of tear film, was examined by use of the prepared rat dry eye models. That is, observation of dry spot areas in the tear film of the rats and measurement of BUT of the tear film were made. […]
After passage of two hours from the last application of the eye drops on the fifth day, a xylazine hydrochloride/ketamine hydrochloride mixed solution was injected (2 ml/kg) into the rats to anesthetize them. […] Dry spot areas had been observed for 5 minutes since the eye-opening by use of a dry eye observation device “DR-1” (product of KOWA CO., LTD.), and the observed images were recorded on a videotape. The observed images were analyzed by use of image analysis software “Scion Image (version 4.02β)” (product of Scion Corporation) to determine a dry spot area per unit area [dry spot area (pixel)/area of observed area on the cornea (pixel)]. From the area, a dry spot area per unit area of the cornea [dry spot area (mm^2)/area of observed area on the cornea (mm^2)] was calculated by use of a conversion formula (1 pixel=0.0000195 mm^2) and evaluated. […]

[3] = test system: corneal epithelial cells of rat dry eye models; experiment: SEM observation of corneal epithelial cells of rat dry eye models (proportion of dark cells, microvilli); details: 80 mmol/l HBA.Na applied for 5 days, dry environment
Method: By use of the rat dry eye models described in Example 1, the corneal epithelial cells of the rats after HBA.Na and PBS were applied were observed by a scanning electron microscope (hereinafter abbreviated as “SEM”).
Samples were prepared in the following manner. • (1) In accordance with the methods described (1), (2) and (4) of Example 1, after 80 mmol/l of HBA.Na and a PBS solution were applied for 5 days, the corneas of the rats were removed immediately and washed with a phosphate buffer (hereinafter abbreviated as “PB”). […]
The photographs taken by the above method were subjected to image analysis to calculate the proportion of the number of dark cells. In the analysis, 6 spots of a certain area were selected randomly from the photograph, the numbers of cells and dark cells within the areas were counted, and the ratio of the number of dark cells to the number of all cells was calculated. […]

C[C@@H](O)CC(=O)[O-].[Na+] [HBA.Na, sodium D-3-hydroxybutyrate]
tear film breakup time (BUT), compared with PBS [1]: BUT extended more significantly | dry spot area per unit area of the cornea, compared with PBS ([2]; eye drop containing 80 mmol/l HBA.Na, p<0.05 vs PBS): significantly smaller dry spot area | dry spot area per unit area of the cornea, compared with PBS ([2]; eye drop containing 120 mmol/l HBA.Na, tendency only): the dry spot area also became smaller | state of the microvilli/microvillus of the corneal epithelial cells ([3]; SEM): retained in a normal state and/or restored to the normal state | proportion of dark cells in corneal epithelial cells, compared with PBS ([3]; SEM image analysis): significantly lower proportion of dark cells
